In the kinase profiling compilation of Christmann-Franck et al. (2016):

Columns and labels:
Test in all cases: radiometric filter-binding kinase assay, Kinase HotSpot
Conditions in all cases: compound 0.5 µM; ATP 10 µM
MAP3K3 (human) = MAP3K3 (human) (UniProt Q99759)
ZAP70 (human) = ZAP70 (human) (UniProt P43403)
HIPK2 (human) = HIPK2 (human) (UniProt Q9H2X6)
TEK (human) = TEK (human) (UniProt Q02763)
STK4 (human) = STK4 (human) (UniProt Q13043)
TXK (human) = TXK (human) (UniProt P42681)
CDK9 CCNK (human) = CDK9 CCNK (human) (UniProt O75909+P50750)
NLK (human) = NLK (human) (UniProt Q9UBE8)
SYK (human) = SYK (human) (UniProt P43405)
WNK2 (human) = WNK2 (human) (UniProt Q9Y3S1)
FLT3 (human) = FLT3 (human) (UniProt P36888)
[1] = molecular target: TYK2 JH1 catalytic (human) (UniProt P29597)
PAK1 (human) = PAK1 (human) (UniProt Q13153)
RPS6KB2 (human) = RPS6KB2 (human) (UniProt Q9UBS0)
GSG2 (human) = GSG2 (human) (UniProt Q8TF76)
YES1 (human) = YES1 (human) (UniProt P07947)
SGK3 (human) = SGK3 (human) (UniProt Q96BR1)
AURKB (human) = AURKB (human) (UniProt Q96GD4)
TAOK3 (human) = TAOK3 (human) (UniProt Q9H2K8)
HIPK4 (human) = HIPK4 (human) (UniProt Q8NE63)
CSNK1E (human) = CSNK1E (human) (UniProt P49674)
FLT1 (human) = FLT1 (human) (UniProt P17948)
PTK2B (human) = PTK2B (human) (UniProt Q14289)
ITK (human) = ITK (human) (UniProt Q08881)
AXL (human) = AXL (human) (UniProt P30530)
MAP3K9 (human) = MAP3K9 (human) (UniProt P80192)
CDK9 CCNT1 (human) = CDK9 CCNT1 (human) (UniProt P50750+O60563)
PRKCE (human) = PRKCE (human) (UniProt Q02156)
SRPK2 (human) = SRPK2 (human) (UniProt P78362)
NTRK2 (human) = NTRK2 (human) (UniProt Q16620)
STK33 (human) = STK33 (human) (UniProt Q9BYT3)
PLK2 (human) = PLK2 (human) (UniProt Q9NYY3)
PLK3 (human) = PLK3 (human) (UniProt Q9H4B4)
CAMK1G (human) = CAMK1G (human) (UniProt Q96NX5)
IGF1R (human) = IGF1R (human) (UniProt P08069)
MAP3K5 (human) = MAP3K5 (human) (UniProt Q99683)
MAP3K14 (human) = MAP3K14 (human) (UniProt Q99558)
MAPKAPK2 (human) = MAPKAPK2 (human) (UniProt P49137)
CLK1 (human) = CLK1 (human) (UniProt P49759)
DAPK1 (human) = DAPK1 (human) (UniProt P53355)

PLK2 (human), sequence (Q9NYY3 whole entry, looked up): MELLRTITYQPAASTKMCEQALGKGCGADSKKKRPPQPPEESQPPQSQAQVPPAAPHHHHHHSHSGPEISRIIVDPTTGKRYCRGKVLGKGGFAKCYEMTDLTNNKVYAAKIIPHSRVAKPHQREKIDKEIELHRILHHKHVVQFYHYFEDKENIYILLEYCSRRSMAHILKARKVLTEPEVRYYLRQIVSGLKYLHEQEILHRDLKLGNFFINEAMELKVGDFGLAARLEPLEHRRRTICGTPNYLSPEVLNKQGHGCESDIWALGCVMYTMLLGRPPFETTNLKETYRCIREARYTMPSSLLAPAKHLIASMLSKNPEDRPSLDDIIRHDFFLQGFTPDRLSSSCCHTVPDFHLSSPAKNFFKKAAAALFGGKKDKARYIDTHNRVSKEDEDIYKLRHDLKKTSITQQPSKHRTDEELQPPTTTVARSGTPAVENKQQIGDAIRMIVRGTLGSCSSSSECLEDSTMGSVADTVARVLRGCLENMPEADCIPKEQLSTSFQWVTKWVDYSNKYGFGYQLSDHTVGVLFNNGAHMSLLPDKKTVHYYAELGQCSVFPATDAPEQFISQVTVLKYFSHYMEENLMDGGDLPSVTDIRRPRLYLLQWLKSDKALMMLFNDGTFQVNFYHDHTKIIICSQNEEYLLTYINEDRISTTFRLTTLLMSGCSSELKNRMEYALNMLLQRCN
TYK2 JH1 catalytic (human), sequence (P29597 whole entry, looked up): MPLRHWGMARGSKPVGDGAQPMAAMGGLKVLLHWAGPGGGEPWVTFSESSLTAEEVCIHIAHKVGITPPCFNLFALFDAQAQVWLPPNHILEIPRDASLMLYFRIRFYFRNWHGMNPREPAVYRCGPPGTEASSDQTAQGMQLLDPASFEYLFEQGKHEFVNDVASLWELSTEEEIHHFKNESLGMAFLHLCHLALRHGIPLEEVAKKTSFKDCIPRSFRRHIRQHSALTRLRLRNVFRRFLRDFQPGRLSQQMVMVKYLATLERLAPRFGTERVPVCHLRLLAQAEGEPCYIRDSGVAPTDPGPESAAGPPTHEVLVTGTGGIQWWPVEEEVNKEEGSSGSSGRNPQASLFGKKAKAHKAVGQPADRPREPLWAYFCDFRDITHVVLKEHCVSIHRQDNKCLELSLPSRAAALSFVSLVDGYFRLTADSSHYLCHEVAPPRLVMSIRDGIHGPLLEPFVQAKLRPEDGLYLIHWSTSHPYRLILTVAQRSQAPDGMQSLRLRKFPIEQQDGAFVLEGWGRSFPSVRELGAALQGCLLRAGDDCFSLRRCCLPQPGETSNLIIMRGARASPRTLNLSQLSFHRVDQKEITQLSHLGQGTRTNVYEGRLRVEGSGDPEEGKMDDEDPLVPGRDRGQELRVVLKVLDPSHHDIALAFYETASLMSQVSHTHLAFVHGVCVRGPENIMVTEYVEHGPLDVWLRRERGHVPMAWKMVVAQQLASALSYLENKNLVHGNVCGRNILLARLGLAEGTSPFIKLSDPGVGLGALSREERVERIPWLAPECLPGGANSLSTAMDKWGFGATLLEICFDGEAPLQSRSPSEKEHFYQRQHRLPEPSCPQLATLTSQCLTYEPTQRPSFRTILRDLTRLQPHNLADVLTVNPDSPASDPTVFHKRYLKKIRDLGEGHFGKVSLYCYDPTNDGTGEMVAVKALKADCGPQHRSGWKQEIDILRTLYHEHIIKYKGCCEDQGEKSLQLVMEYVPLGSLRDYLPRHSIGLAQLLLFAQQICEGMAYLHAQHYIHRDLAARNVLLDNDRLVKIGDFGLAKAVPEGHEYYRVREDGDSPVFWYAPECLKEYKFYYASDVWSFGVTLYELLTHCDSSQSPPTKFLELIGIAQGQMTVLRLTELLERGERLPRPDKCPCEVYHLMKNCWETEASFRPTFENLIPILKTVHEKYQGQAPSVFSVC
MAP3K5 (human), sequence (Q99683 whole entry, looked up): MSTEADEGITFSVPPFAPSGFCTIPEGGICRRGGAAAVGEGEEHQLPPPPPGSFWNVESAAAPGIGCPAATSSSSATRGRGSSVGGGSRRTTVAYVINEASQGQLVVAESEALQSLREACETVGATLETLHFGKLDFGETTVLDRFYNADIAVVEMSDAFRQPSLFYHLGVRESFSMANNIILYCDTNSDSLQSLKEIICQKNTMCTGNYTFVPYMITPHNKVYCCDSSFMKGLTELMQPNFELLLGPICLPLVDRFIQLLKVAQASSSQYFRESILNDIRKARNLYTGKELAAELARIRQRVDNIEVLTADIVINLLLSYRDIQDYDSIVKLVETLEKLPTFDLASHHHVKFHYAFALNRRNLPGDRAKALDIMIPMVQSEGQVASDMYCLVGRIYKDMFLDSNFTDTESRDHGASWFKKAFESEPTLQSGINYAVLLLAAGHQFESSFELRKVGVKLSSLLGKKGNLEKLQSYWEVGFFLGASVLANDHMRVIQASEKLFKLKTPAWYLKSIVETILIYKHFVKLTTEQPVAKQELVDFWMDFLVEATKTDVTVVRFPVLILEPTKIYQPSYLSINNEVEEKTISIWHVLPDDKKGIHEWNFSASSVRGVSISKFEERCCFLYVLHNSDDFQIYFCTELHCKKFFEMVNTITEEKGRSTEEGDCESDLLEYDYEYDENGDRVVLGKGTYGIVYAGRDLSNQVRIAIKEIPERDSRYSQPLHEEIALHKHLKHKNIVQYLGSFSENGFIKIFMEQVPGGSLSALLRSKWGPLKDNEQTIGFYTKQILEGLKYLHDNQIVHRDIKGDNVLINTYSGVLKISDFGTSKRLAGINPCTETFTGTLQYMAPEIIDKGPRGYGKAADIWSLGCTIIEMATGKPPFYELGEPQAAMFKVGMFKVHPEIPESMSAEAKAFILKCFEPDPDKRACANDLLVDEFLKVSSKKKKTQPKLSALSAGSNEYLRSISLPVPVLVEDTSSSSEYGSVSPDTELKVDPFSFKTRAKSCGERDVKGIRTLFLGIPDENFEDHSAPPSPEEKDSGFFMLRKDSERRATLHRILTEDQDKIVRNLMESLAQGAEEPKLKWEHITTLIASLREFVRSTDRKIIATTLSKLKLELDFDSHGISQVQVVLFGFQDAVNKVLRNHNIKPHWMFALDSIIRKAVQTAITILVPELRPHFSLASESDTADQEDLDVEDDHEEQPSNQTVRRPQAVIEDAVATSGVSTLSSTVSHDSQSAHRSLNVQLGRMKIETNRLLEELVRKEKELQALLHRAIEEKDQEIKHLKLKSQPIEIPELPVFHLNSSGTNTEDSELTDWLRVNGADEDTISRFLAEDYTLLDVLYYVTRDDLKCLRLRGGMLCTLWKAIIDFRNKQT
HIPK4 (human), sequence (Q8NE63 whole entry, looked up): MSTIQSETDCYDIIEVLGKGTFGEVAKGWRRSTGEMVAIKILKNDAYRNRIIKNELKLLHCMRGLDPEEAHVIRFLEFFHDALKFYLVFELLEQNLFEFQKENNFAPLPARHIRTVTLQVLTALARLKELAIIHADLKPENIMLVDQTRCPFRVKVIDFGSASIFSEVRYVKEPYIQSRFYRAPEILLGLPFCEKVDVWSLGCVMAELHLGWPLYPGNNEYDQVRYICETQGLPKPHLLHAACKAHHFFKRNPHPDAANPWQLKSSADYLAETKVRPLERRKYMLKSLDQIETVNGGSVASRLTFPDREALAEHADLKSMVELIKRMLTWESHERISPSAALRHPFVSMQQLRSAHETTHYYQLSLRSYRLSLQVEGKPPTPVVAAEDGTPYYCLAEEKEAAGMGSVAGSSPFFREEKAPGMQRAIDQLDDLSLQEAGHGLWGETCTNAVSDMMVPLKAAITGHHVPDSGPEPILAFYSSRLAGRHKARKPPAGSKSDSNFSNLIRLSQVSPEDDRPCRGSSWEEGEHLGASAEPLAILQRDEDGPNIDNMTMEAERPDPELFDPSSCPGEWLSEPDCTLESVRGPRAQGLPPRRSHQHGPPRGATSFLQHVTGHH
ITK (human), sequence (Q08881 whole entry, looked up): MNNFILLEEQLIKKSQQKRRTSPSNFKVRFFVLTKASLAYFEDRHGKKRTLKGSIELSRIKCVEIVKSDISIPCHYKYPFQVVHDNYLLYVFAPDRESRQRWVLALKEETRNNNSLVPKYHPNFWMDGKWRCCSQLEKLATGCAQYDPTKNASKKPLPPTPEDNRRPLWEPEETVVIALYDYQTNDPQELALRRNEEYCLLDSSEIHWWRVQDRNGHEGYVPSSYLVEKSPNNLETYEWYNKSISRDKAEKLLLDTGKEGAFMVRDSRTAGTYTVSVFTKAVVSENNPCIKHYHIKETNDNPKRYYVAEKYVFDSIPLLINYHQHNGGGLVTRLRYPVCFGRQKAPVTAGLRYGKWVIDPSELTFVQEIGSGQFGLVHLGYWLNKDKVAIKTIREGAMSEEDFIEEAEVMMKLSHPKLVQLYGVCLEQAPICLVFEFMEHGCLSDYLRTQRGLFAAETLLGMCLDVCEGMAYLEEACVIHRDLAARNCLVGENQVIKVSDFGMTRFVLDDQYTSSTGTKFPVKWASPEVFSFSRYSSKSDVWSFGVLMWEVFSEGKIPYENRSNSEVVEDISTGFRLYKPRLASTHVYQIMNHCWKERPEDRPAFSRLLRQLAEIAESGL
CAMK1G (human), sequence (Q96NX5 whole entry, looked up): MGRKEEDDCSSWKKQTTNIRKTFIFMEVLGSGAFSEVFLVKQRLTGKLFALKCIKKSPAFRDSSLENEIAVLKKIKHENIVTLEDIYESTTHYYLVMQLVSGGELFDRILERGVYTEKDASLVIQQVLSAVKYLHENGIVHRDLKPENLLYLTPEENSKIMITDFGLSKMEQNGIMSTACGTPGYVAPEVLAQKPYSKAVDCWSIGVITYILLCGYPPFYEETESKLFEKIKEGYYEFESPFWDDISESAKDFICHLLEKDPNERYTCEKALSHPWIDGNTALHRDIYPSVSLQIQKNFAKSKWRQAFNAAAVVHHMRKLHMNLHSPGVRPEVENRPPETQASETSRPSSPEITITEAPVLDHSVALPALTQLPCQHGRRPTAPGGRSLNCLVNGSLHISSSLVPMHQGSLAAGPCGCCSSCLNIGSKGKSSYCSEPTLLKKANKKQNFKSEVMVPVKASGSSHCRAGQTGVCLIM

Structure (SMILES) | residual activity (MAP3K3 (human)) [%] | residual activity (ZAP70 (human)) [%] | residual activity (HIPK2 (human)) [%] | residual activity (TEK (human)) [%] | residual activity (STK4 (human)) [%] | residual activity (TXK (human)) [%] | residual activity (CDK9 CCNK (human)) [%] | residual activity (NLK (human)) [%] | residual activity (SYK (human)) [%] | residual activity (WNK2 (human)) [%] | residual activity (FLT3 (human)) [%] | residual activity [1] [%] | residual activity (PAK1 (human)) [%] | residual activity (RPS6KB2 (human)) [%] | residual activity (GSG2 (human)) [%] | residual activity (YES1 (human)) [%] | residual activity (SGK3 (human)) [%] | residual activity (AURKB (human)) [%] | residual activity (TAOK3 (human)) [%] | residual activity (HIPK4 (human)) [%] | also measured
CC#CC(=O)Nc1cc2c(Nc3ccc(F)c(Cl)c3)ncnc2cn1 | 107 | 90.4 | 101 | 99.7 | 98.7 | 1.66 | 98.4 | 99.7 | 95.4 | 107 | 92.1 | 106 | 94.5 | 97.2 | 101 | 82.3 | 100 | 101 | 110 | 99.7 | residual activity (CSNK1E (human)): 93.6%; residual activity (FLT1 (human)): 100%; residual activity (PTK2B (human)): 94.1%; residual activity (ITK (human)): 76.3%; residual activity (AXL (human)): 100%; residual activity (MAP3K9 (human)): 95.8%; residual activity (CDK9 CCNT1 (human)): 90.6%; residual activity (PRKCE (human)): 88.3%; residual activity (SRPK2 (human)): 69.2%; residual activity (NTRK2 (human)): 100%; residual activity (STK33 (human)): 88.5%; residual activity (PLK2 (human)): 103%; residual activity (PLK3 (human)): 100%; residual activity (CAMK1G (human)): 99.2%; residual activity (IGF1R (human)): 100%; residual activity (MAP3K5 (human)): 98.9%; residual activity (MAP3K14 (human)): 80.4%; residual activity (MAPKAPK2 (human)): 104%; residual activity (CLK1 (human)): 82.5%; residual activity (DAPK1 (human)): 94.7%
CCN(CC)C(=O)c1ccc(Nc2nc(OCC3CCCCC3)c3nc[nH]c3n2)cc1 | 47.3 | 94 | 92.4 | 95.4 | 46.3 | 46 | 72.6 | 94.5 | 61.1 | 88.6 | 10.3 | 4.96 | 93.8 | 102 | 94.1 | 15.4 | 97.2 | 30.1 | 74.2 | 96.5 | residual activity (CSNK1E (human)): 95.6%; residual activity (FLT1 (human)): 84%; residual activity (PTK2B (human)): 48.7%; residual activity (ITK (human)): 57.3%; residual activity (AXL (human)): 80.8%; residual activity (MAP3K9 (human)): 3.8%; residual activity (CDK9 CCNT1 (human)): 88.8%; residual activity (PRKCE (human)): 76.6%; residual activity (SRPK2 (human)): 87.8%; residual activity (NTRK2 (human)): 54.3%; residual activity (STK33 (human)): 67.2%; residual activity (PLK2 (human)): 98.2%; residual activity (PLK3 (human)): 98.1%; residual activity (CAMK1G (human)): 96.1%; residual activity (IGF1R (human)): 28.4%; residual activity (MAP3K5 (human)): 96.9%; residual activity (MAP3K14 (human)): 132%; residual activity (MAPKAPK2 (human)): 99.2%; residual activity (CLK1 (human)): 74.1%; residual activity (DAPK1 (human)): 81.6%
Cc1ccc(NC2=CC(=O)c3sc(C)nc3C2=O)cc1 | 120 | 95.4 | 98.5 | 95.9 | 93.5 | 98.8 | 84.4 | 107 | 97.9 | 97.7 | 72.5 | 109 | 87.5 | 95.2 | 86.6 | 86.7 | 95.2 | 89.8 | 98.9 | 93.7 | residual activity (CSNK1E (human)): 93.4%; residual activity (FLT1 (human)): 89.8%; residual activity (PTK2B (human)): 90.2%; residual activity (ITK (human)): 98.6%; residual activity (AXL (human)): 97%; residual activity (MAP3K9 (human)): 86.7%; residual activity (CDK9 CCNT1 (human)): 97.6%; residual activity (PRKCE (human)): 96.3%; residual activity (SRPK2 (human)): 101%; residual activity (NTRK2 (human)): 100%; residual activity (STK33 (human)): 96.6%; residual activity (PLK2 (human)): 95.1%; residual activity (PLK3 (human)): 94.5%; residual activity (CAMK1G (human)): 95%; residual activity (IGF1R (human)): 92.2%; residual activity (MAP3K5 (human)): 119%; residual activity (MAP3K14 (human)): 98.2%; residual activity (MAPKAPK2 (human)): 97.6%; residual activity (CLK1 (human)): 100%; residual activity (DAPK1 (human)): 105%
